Assay type in all cases: functional, cell-based
Experiment [1] is described as follows: Cytotoxicity against mouse colon 26-L5 cells after 72 hrs by MTT assay.
Experiment [2] in a line: Cytotoxicity against mouse B16-BL6 cells after 72 hrs by MTT assay. As to conditions: B16-BL6, 72 h.
Experiment [3] is described as follows: Cytotoxicity against mouse LLC cells after 72 hrs by MTT assay. As to conditions: Lewis lung carcinoma.
The subject of experiment [4] is A549. The experiment can be described thus: Cytotoxicity against human A549 cells after 72 hrs by MTT assay. As to conditions: A549, 72 h.
The subject of experiment [5] is HeLa. The experiment can be described thus: Cytotoxicity against human HeLa cells after 72 hrs by MTT assay.
In experiment [6] the test system is HT-1080. Put plainly: Cytotoxicity against human HT1080 cells after 72 hrs by MTT assay. As to conditions: HT-1080, 72 h.

Take `COc1cc(O)ccc1[C@H]1COc2cc(O)ccc2C1`: the IC50 in experiment [1] was 49.8 µM; in experiment [2], 33.6 µM; in experiment [3] it was greater than 100 µM; in experiment [4], greater than 100 µM; in experiment [5], 77.1 µM; in experiment [6] it was 75.3 µM.

On to `O=C1c2ccc(O)cc2O[C@H](c2ccccc2)[C@H]1O`, for which the IC50 in experiment [1], in experiment [2], in experiment [3], in experiment [4], in experiment [5] and in experiment [6] was greater than 100 µM throughout.

On to `O=C(c1ccc(O)cc1O)[C@@H](O)Cc1ccc(O)cc1`, for which the IC50 in experiment [1], in experiment [2], in experiment [3], in experiment [4], in experiment [5] and in experiment [6] was greater than 100 µM in each case.

On to `C=C[C@@H](c1ccccc1)c1cc(O)c(OC)cc1OC`, for which the IC50 in experiment [1] is 60.3 µM; in experiment [2], 53.8 µM; in experiment [3], greater than 100 µM; in experiment [4] it was 73.7 µM; in experiment [5], 60.1 µM; in experiment [6], greater than 100 µM.

Take `COc1ccc([C@H]2COc3cc(O)ccc3C2)c(O)c1`: the IC50 is 67 µM in experiment [1]; 57.4 µM in experiment [2]; 92.3 µM in experiment [3]; greater than 100 µM in experiment [4]; 72.6 µM in experiment [5]; greater than 100 µM in experiment [6].

Regarding `COc1ccc([C@H]2COc3cc(O)ccc3C2=O)c(O)c1`, the IC50 in experiment [1] is 67 µM; in experiment [2], greater than 100 µM; in experiment [3] it was greater than 100 µM; in experiment [4], greater than 100 µM; in experiment [5], greater than 100 µM; in experiment [6], greater than 100 µM.

Consider `COc1ccc2c(c1O)O[C@@H]1c3ccc(O)cc3OC[C@H]21`, for which the IC50 in experiment [1] was 68.1 µM; in experiment [2] it was 47.5 µM; in experiment [3], 57.2 µM; in experiment [4], greater than 100 µM; in experiment [5], 61.2 µM; in experiment [6], greater than 100 µM.

With `COc1ccc2c(C)c(-c3ccc(O)cc3O)oc2c1`, the 50% inhibitory concentration (IC50) amounted to 27.8 µM in experiment [1]; 44.8 µM in experiment [2]; 34.4 µM in experiment [3]; 42.6 µM in experiment [4]; 36.1 µM in experiment [5]; 38.7 µM in experiment [6].

On to `COc1ccc2c(c1)O[C@H]1c3ccc(O)c(O)c3OC[C@@H]21`, for which the IC50 in experiment [1] was 54.1 µM; in experiment [2], greater than 100 µM; in experiment [3], greater than 100 µM; in experiment [4], greater than 100 µM; in experiment [5] it was greater than 100 µM; in experiment [6], greater than 100 µM.

Consider `COc1cc(O)ccc1C(=O)/C=C/c1ccc(O)cc1`, for which the IC50 was determined as 12.3 µM in experiment [1]; 56.3 µM in experiment [2]; 69.1 µM in experiment [3]; 62.1 µM in experiment [4]; 67.9 µM in experiment [5]; 51.2 µM in experiment [6].

Regarding `COc1ccc([C@H]2COc3cc(O)ccc3C2=O)c(OC)c1O`, the IC50 in experiment [1], in experiment [2], in experiment [3], in experiment [4], in experiment [5] and in experiment [6] was greater than 100 µM throughout.

Consider `O=C1c2ccc(O)cc2OC1(O)Cc1ccc(O)cc1` (stereo not drawn), for which the IC50 in experiment [1] was 25.9 µM; in experiment [2], greater than 100 µM; in experiment [3] it was greater than 100 µM; in experiment [4], greater than 100 µM; in experiment [5], greater than 100 µM; in experiment [6] it was greater than 100 µM.

Turning to `COc1cc2c(cc1O)O[C@H](c1ccccc1)[C@@H](O)C2=O`, the IC50 in experiment [1], in experiment [2], in experiment [3], in experiment [4], in experiment [5] and in experiment [6] was greater than 100 µM each time.

As for `COc1ccc([C@H]2COc3cc(OC)ccc3C2)c(O)c1`, the IC50 in experiment [1] was found to be 29.8 µM; in experiment [2], 24.1 µM; in experiment [3], 24 µM; in experiment [4] it was 46 µM; in experiment [5], 44.3 µM; in experiment [6], 50.1 µM.

Take `CCO[C@@]12COc3cc(O)ccc3[C@@H]1Oc1cc(OC)ccc12`: the IC50 in experiment [1], in experiment [2], in experiment [3], in experiment [4], in experiment [5] and in experiment [6] was greater than 100 µM throughout.

Take `O=C1C[C@@H](c2ccccc2)Oc2cc(O)c(O)c(O)c21`: the IC50 in experiment [1] is 53.4 µM; in experiment [2], greater than 100 µM; in experiment [3] it was greater than 100 µM; in experiment [4] it was greater than 100 µM; in experiment [5], greater than 100 µM; in experiment [6] it was greater than 100 µM.

Regarding `COc1cc2c(cc1O)O[C@H](c1ccccc1)CC2=O`, the IC50 in experiment [1] was 5.9 µM; in experiment [2], 6.7 µM; in experiment [3], 9.3 µM; in experiment [4], 8.6 µM; in experiment [5] it was 5.6 µM; in experiment [6], 7.9 µM.

Consider `COc1ccc(-c2coc3cc(O)cc(O)c3c2=O)c(O)c1`, for which the IC50 in experiment [1] was 93.6 µM; in experiment [2] it was greater than 100 µM; in experiment [3] it was greater than 100 µM; in experiment [4], greater than 100 µM; in experiment [5], greater than 100 µM; in experiment [6], greater than 100 µM.

With `COc1ccc([C@H]2COc3cc(O)cc(O)c3C2=O)c(O)c1`, the IC50 is 71.3 µM in experiment [1]; greater than 100 µM in experiment [2]; greater than 100 µM in experiment [3]; greater than 100 µM in experiment [4]; greater than 100 µM in experiment [5]; greater than 100 µM in experiment [6].

With `COc1ccc2c(c1)O[C@H]1c3ccc(O)c(OC)c3OC[C@@H]21`, the IC50 was 29.4 µM in experiment [1]; greater than 100 µM in experiment [2]; 97.6 µM in experiment [3]; 97.3 µM in experiment [4]; 47.1 µM in experiment [5]; 96.3 µM in experiment [6].

For `COc1ccc2c(c1)O[C@@H]1c3ccc(O)cc3OC[C@H]21`, the IC50 was 11.3 µM in experiment [1]; 42.4 µM in experiment [2]; 17.2 µM in experiment [3]; 39.5 µM in experiment [4]; 23.4 µM in experiment [5]; 28.4 µM in experiment [6].

In the case of `O=C(/C=C/c1ccccc1)c1ccc(O)cc1O` [2',4'-DIHYDROXYCHALCONE], the IC50 amounted to 7.4 µM in experiment [1]; 44.3 µM in experiment [2]; 39.5 µM in experiment [3]; 41.6 µM in experiment [4]; 23.1 µM in experiment [5]; 34 µM in experiment [6].

Consider `COc1ccc([C@H]2OC[C@H]3[C@@H]2CO[C@@H]3c2ccc(OC)c(OC)c2)cc1OC` [(+)-EUDESMIN], for which the IC50 in experiment [1], in experiment [2], in experiment [3], in experiment [4], in experiment [5] and in experiment [6] was greater than 100 µM each time.

On to `COc1cc([C@@H]2OC[C@@H]3[C@H]2CO[C@H]3c2ccc(O)c(OC)c2)ccc1O` [(+)-PINORESINOL], for which the IC50 in experiment [1] is greater than 100 µM; in experiment [2], greater than 100 µM; in experiment [3], greater than 100 µM; in experiment [4] it was greater than 100 µM; in experiment [5], 92.5 µM; in experiment [6], greater than 100 µM.

For the compound `COc1c(O)cc2oc(-c3ccccc3)c(O)c(=O)c2c1O` [ALNUSIN], the IC50 in experiment [1], in experiment [2], in experiment [3], in experiment [4], in experiment [5] and in experiment [6] was greater than 100 µM throughout.

For the compound `COc1c(O)cc2c(c1O)C(=O)[C@H](O)[C@@H](c1ccccc1)O2` [ALNUSTINOL], the IC50 in experiment [1], in experiment [2], in experiment [3], in experiment [4], in experiment [5] and in experiment [6] was greater than 100 µM each time.

With `COc1ccc(-c2coc3cc(O)cc(O)c3c2=O)cc1` [BIOCHANIN], the IC50 was 98 µM in experiment [1]; greater than 100 µM in experiment [2]; greater than 100 µM in experiment [3]; greater than 100 µM in experiment [4]; greater than 100 µM in experiment [5]; greater than 100 µM in experiment [6].

Regarding `COc1ccc(-c2coc3cc(O)ccc3c2=O)cc1O` [CALYCOSIN], the IC50 in experiment [1] is 98 µM; in experiment [2] it was greater than 100 µM; in experiment [3], greater than 100 µM; in experiment [4], greater than 100 µM; in experiment [5], greater than 100 µM; in experiment [6], greater than 100 µM.

Take `O=c1c(-c2ccc(O)cc2)coc2cc(O)ccc12` [DAIDZEIN]: the IC50 in experiment [1] was 88.1 µM; in experiment [2], greater than 100 µM; in experiment [3] it was greater than 100 µM; in experiment [4] it was greater than 100 µM; in experiment [5], greater than 100 µM; in experiment [6], greater than 100 µM.

For the compound `COc1c(O)cc2c(c1O)C(=O)C[C@@H](c1ccccc1)O2` [DIHYDROOROXYLIN A], the IC50 in experiment [1] amounted to 49 µM; in experiment [2], 72.6 µM; in experiment [3], 82.7 µM; in experiment [4], 38 µM; in experiment [5], 39.3 µM; in experiment [6], 47.6 µM.

`COc1cccc2c1C(=O)c1c(O)c3c(c(O)c1C2=O)C[C@@](O)(C(=O)CO)C[C@@H]3O[C@H]1C[C@H](N)[C@H](O)[C@H](C)O1` [DOXORUBICIN]: the IC50 is 0.33 µM in experiment [1]; 8.05 µM in experiment [2]; 8.04 µM in experiment [3]; 7.88 µM in experiment [4]; 0.68 µM in experiment [5]; 9.32 µM in experiment [6].

As to `O=c1[nH]cc(F)c(=O)[nH]1` [FLUOROURACIL], the IC50 in experiment [1] was 0.46 µM; in experiment [2], 5.78 µM; in experiment [3], 2.59 µM; in experiment [4], 9.19 µM; in experiment [5], 0.77 µM; in experiment [6], 9.45 µM.

Consider `COc1ccc(-c2coc3cc(O)ccc3c2=O)cc1` [FORMONONETIN], for which the IC50 in experiment [1] was 83.6 µM; in experiment [2], greater than 100 µM; in experiment [3] it was greater than 100 µM; in experiment [4], greater than 100 µM; in experiment [5] it was greater than 100 µM; in experiment [6], greater than 100 µM.

The record behind these values is ChEMBL document CHEMBL1150308, “Cytotoxic constituents from Brazilian red propolis and their structure-activity relationship” (Bioorg Med Chem, 2008).
